In the experiment the test system is TNFα-Freisetzung. The experiment is described as follows: Inhibition of TNFα release after LPS stimulation of human whole blood (ELISA). To be noted: for inhibition at 0.01 µM / inhibition at 0.1 µM: Homo sapiens, 24 h, read-out: TNFα-Freisetzung hemmen. It counts as cell-based. From the text: Methodenbeschreibung der Hemmung der TNFα Freisetzung nach LPS Stimulation von humanem Vollblut
Die Stimulierung isolierter Leukozyten für die Freisetzung von Zytokinen kann auf verschiedenen Wegen erfolgen. Lipopolysaccharide (LPS) stellen einen Stimulus für die Untersuchung der Freisetzung von TNFα dar. LPS ist Bestandteil bakterieller Zellwände und wird beim Abtöten der Bakterien (durch Antibiotika oder das natürliche Immunsystem) freigesetzt. LPS stimuliert insbesondere die Aktivität phagozytierender Leukozyten (Gewebsmakrophagen, Granulozyten, Monozyten) und verursacht die Infiltration von Leukozyten vom peripheren Blut in das betroffene Gewebe. Ein Zytokin von besonderer Bedeutung für diese Mechanismen ist TNFα, das in großen Mengen durch die betroffenen Zellen sezerniert wird. Hauptquelle dabei sind Monozyten und Makrophagen. TNFα initiiert und prolongiert den Entzündungsprozess im Zusammenspiel mit anderen Mediatoren.
Für die Untersuchung des Effektes auf die LPS-induzierte TNFα-Freisetzung wurde eine Methode verwendet, die von MARX et al. (Marx D, Tassabehji M, Heer S, Hüttenbrink KB, Szelenyi I (2002) Pulmonary Pharmacology & Therapeutics 15 7-15) beschrieben wurde. Die Methode in Kürze: Humanes Blut wurde von verschiedenen Spendern entnommen, durch Zusatz von 10 mM Na-Citrat ungerinnbar gemacht und 1:5 mit RPMI 1640 Zellkulturmedium verdünnt. Die Testsubstanzen wurden den Blutproben in verschiedenen Konzentrationen zugefügt. 15 Minuten später wurden die Leukozyten durch Zusatz von Lipopolysacchariden (LPS) aus Salmonella abortus equi in einer Endkonzentration von 1µg/ml stimuliert. Nach Inkubation der Testansätze für 24 Stunden bei 37°C. und unter 5% CO2 in wassergesättigter Luft, wurde das Blut zentrifugiert und die Konzentration an TNFα im zellfreien Überstand unter Verwendung eines käuflichen ELISA (BD Biosciences) nach Angaben des Herstellers exakt vermessen.
(In general: An ELISA detects its analyte on a solid surface through an enzyme-linked reagent.)

Turning to `CCc1nc2c(sc3nc(-c4ccccc4)cc(C)c32)c(=O)[nH]1` [2-Ethyl-9-methyl-7-phenyl-pyrido[3',2':4,5]thieno[3,2-d]pyrimidin-4-on], the inhibition at 0.01 µM (bei 10nM) was more than 20%.
For the molecule `Cc1cc(C)c2c(n1)sc1c(=O)[nH]c(=O)[nH]c12` [7,9-Dimethyl-pyrido[3',2':4,5]thieno[3,2-d]pyrimidin-2,4-dion], for the setting “bei 10nM”, the inhibition at 0.01 µM was more than 20%.
On to `O=c1[nH]c(=O)c2sc3nc(-c4ccccc4)cc(-c4ccccc4)c3c2[nH]1` [7,9-Diphenyl-pyrido[3',2':4,5]thieno[3,2-d]pyrimidin-2,4-dion], for which, for the setting “bei 100nM”, the inhibition at 0.1 µM is more than 10%.
Consider `COc1ccc(-c2cc(C)c3c(n2)sc2c(=O)[nH]c(=O)[nH]c23)cc1OC` [7-(3,4-Dimethoxyphenyl)-9-methyl-pyrido[3',2':4,5]thieno[3,2-d]pyrimidin-2,4-dion], for which, under “bei 10nM”, the inhibition at 0.01 µM is more than 20%.
In turn, `Cc1nc2c(sc3nc(-c4ccc(Br)cc4)cc(C)c32)c(=O)[nH]1` [7-(4-Brom-phenyl)-2,9-dimethyl pyrido[3',2':4,5]thieno[3,2-d]pyrimidin-4(3H)-on] returned a TNFα-Freisetzung hemmen (bei 100nM) of more than 10%.
`Cc1cc(-c2ccc(F)cc2)nc2sc3c(=O)[nH]c(=O)[nH]c3c12` [7-(4-Fluorphenyl)-9-methyl-pyrido[3',2':4,5]thieno[3,2-d]pyrimidin-2,4-dion] gave a TNFα-Freisetzung hemmen (bei 10nM) of more than 20%.
Consider `COc1ccc(-c2cc(C)c3c(n2)sc2c(=O)[nH]c(=O)[nH]c23)cc1` [7-(4-Methoxyphenyl)-9-methyl-pyrido[3',2':4,5]thieno[3,2-d]pyrimidin-2,4-dion], for which the inhibition at 0.01 µM (bei 10nM) was more than 20%.
For the molecule `CCCc1nc2c(sc3nc(-c4ccccc4)cc(-c4cccnc4)c32)c(=O)[nH]1` [7-Phenyl-2-n-propyl-9-(pyrid-3-yl)-pyrido[3',2':4,5]thieno[3,2-d]pyrimidin-4(3H)-on], the inhibition at 0.01 µM (bei 10nM) was more than 20%.
Consider `O=C(O)c1nc2c(sc3nc(-c4ccccc4)ccc32)c(=O)[nH]1` [7-Phenyl-pyrido[3',2':4,5]thieno[3,2-d]pyrimidin-4(3H)-on-2-carbonsäure], for which the TNFα-Freisetzung hemmen (bei 10nM) is listed as more than 20%.
For `CCOC(=O)c1nc2c(sc3nc(-c4ccccc4)ccc32)c(=O)[nH]1` [7-Phenyl-pyrido[3',2':4,5]thieno[3,2-d]pyrimidin-4(3H)-on-2-carbonsäureethylester], under “bei 100nM”, the TNFα-Freisetzung hemmen was more than 10%.
`CSc1nc2c(sc3nc(-c4ccccc4)cc(C)c32)c(=O)[nH]1` [9-Methyl-2-methylthio-7-phenyl-pyrido[3',2':4,5]thieno[3,2-d]pyrimidin-4(3H)-on]: the inhibition at 0.1 µM (bei 100nM) was more than 10%.
For `Cc1cc(-c2ccccc2)nc2sc3c(=O)[nH]c(=O)[nH]c3c12` [9-Methyl-7-phenyl-pyrido[3',2':4,5]thieno[3,2-d]pyrimidin-2,4-dion], the inhibition at 0.01 µM (bei 10nM) was more than 20%.
`Cc1c(-c2ccc([N+](=O)[O-])cc2)c(-c2ccccc2)nc2sc3c(=O)[nH]c(=O)[nH]c3c12` [9-Methyl-8-(4-nitrophenyl)-7-phenyl-pyrido[3',2':4,5]thieno[3,2-d]pyrimidin-2,4(1H,3H)-dion]: the inhibition at 0.1 µM (bei 100nM) is more than 10%.
